Laboratory results from patent US7022711B2, “2-(4-Pyridyl)amino-6-dialkoxyphenyl-pyrido[2,3-d]pyrimidin-7-ones” (Warner-Lambert Company, priority 2000, dated 2006).

Columns and labels:
[1] = test system: Human umbilical vein endothelial cells (HUVECs); assay: Serum stimulated HUVEC cell proliferation (Sulphorhodamine B); format: cell-based; conditions: for selectivity for serum-stimulated endothelial cell proliferation: HUVEC compared to A90 and C6 tumor cell proliferation
Protocol: (§1) Human umbilical vein endothelial cells (HUVECs) (Clonetics, Palo Alto, Calif.) were seeded at 2000 cells per well in growth medium containing 2% serum (EGM, Clonetics) and allowed to attach overnight (37° C., 5% CO2, 100% humidity). C6 rat glioma cells (ATCC) were seeded at 600 cells per well and incubated in F10 medium (GIBCO, Gaithersburg, Md.) supplemented with 15% horse serum, 2.5% fetal bovine serum, and 1 mM glutamine. A90 human ovarian cells (Dr. Kent Crickard, SUNY/AB Medical School) were seeded at 600 cells per well in RPMI1640 (GIBCO) plus 10% fetal bovine serum. Plates were incubated overnight (37° C., 5% CO2, 100% humidity) to allow the cells to attach. Test compound dilutions were added to the appropriate wells, and the incubation was continued for 4 additional days. Monolayers were fixed in 10% trichloroacetic acid (30 minutes at 4° C.), washed with distilled water, and stained with Sulphorhodamine B (0.075% in 1% acetic acid) (Sigma). Plates were washed in 1% acetic acid, and the bound dye was solubilized in 100 μL unbuffered Tris base. Absorbance was measured at 540 nm using a reference filter wavelength of 630 nm. Inhibitor potency (IC50) versus cellular proliferation was determined, and endothelial cell selectivity was assessed by comparing the inhibition of HUVEC proliferation to A90 and C6 tumor cell proliferation (Table 3).

[2] = Caco-2 cell transport (permeability) study; conditions: human
Protocol: (§4) Cell transport studies were conducted with Caco-2 cells grown on Snapwells™ between 22 and 28 days postseeding. Typically, 10 mM MES buffer (pH 6.5) with 5 mM KCl, 135 mM NaCl, and 1.8 mM CaCl2 was used for the apical side and 10 mM MOPS (pH 7.4) with 5 M KCl, 132 mM NaCl, and 1.8 mM CaCl2 with 5 mM D-glucose was used for the basolateral side. On the day of the experiment, the growth media was aspirated, and the cell monolayers were pre-equilibrated with appropriate buffers at 37° C., and TEER measurements were performed to confirm the integrity of the monolayers. Transepithelial flux measurements were made by mounting the cell monolayers in a side-by-side diffusion chamber system (Precision Instrument Design, Tahoe City, Calif.). Temperature was maintained at 37° C. with a circulating water jacket. The solutions were mixed with gas-lift circulation with 95% oxygen/5% carbon dioxide. […] Donor and receiver samples were collected at selected time intervals for up to 3 hours. […] Test compounds were analyzed using LC-MS/MS methods. Apparent permeability coefficients were calculated using the following equation: Papp=(V·dC/dt)/(A·C0) where V=volume of the receiver solution in mL; A=surface area of the monolayer in cm^2; C0=initial donor concentration in mM; and dC/dt=change of the drug concentration in the receiver chamber over time.

Lck = target: T1, Lck (Homo sapiens, UniProt P06239); assay: Kinase inhibition assay (DELFIA), Lck; format: biochemical; conditions: 40 μM ATP, kinase domain 20 nM
T1 construct: The kinase domains from FGFR-1, VEGFR-2, Lck, and PDGF were purified from baculoviral vectors expression systems; made in house
T1 sequence (P06239 245-498 limits assumed, species assumed): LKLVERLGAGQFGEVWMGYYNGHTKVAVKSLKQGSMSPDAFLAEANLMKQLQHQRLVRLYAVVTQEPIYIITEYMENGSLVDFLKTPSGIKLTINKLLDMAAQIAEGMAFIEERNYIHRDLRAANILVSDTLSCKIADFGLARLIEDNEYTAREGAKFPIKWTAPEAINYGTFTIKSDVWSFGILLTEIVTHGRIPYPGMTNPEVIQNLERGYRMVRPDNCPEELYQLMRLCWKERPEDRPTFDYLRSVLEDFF
Protocol: (§2) The inhibition activity of the compounds in Examples 8, 9, 10, 11, and 12 and Reference Compounds A and B were evaluated using the Dissociated Enhanced Lanthanide Fluoroimmuno Assay (DELFIA) (Frank Loganzo and Carolyn Hardy. A sensitive, time-resolved fluorometric assay for the detection of inhibitors of phosphotyrosine kinases. American Biotechnology Laboratory, December 1998). DELFIA plates (EG&G Wallac, Gaithersburg, Md.) were coated overnight with Poly Glu Tyr (4:1) (Sigma, St. Louis, Mo.) at room temperature, washed (DELFIA wash reagent, EG&G Wallac), and spotted with 1 μL inhibitor dilution or DMSO carrier control per well. In some cases, kinase was autophosphorylated prior to analysis by incubating 45 minutes at 4° C. in the presence of 4 mM ATP and 25 mM MgCl2. A typical 100 μL kinase assay reaction contained 20 mM Tris (pH 7.5), 20 mM MgCl2, 50 mM NaCl, 5 mM DTT, and protease inhibitors (Mini EDTA-free protease inhibitor cocktail tablets, Boehringer Mannheim, Indianapolis, Ind.), 40 μM ATP, and an appropriate concentration of inhibitor. The reaction was allowed to continue for 30 minutes at room temperature. Plates were washed, blocked 30 minutes at room temperature (0.5% bovine serum albumin in DELFIA Assay Buffer, EG&G Wallac), and washed. One hundred microliter europium-conjugated antiphosphotyrosine antibody in DELFIA assay buffer was added to each well. Plates were incubated for 1 hour and decanted. One hundred microliter DELFIA enhancement solution (EG&G Wallac) was added and time-resolved fluorescence of the reactions determined using a VICTOR2 1420 multilable counter (EG&G Wallac). Compounds were tested from 10 through 0.0001 μM. c-Src was (Upstate Biotechnology, Lake Placid, N.Y.) was used at 3 units per reaction. The kinase domains from FGFR-1, VEGFR-2, Lck, and PDGF were purified from baculoviral vectors expression systems and were used in the assays at 20 nM.

[3] = Metabolic stability, mice liver S9 fraction; format: in vitro ADME; conditions: mouse, liver S9 fraction; mice liver S9, 5 μM, 37° C., 1.0 mM NADPH; read-out: MS9 in vitro metabolic half-life
Protocol: (§3) Compounds were individually incubated (5 μM in DMSO) with human and mice liver S9 fractions in 50 mM KHPO4 buffer at 37° C. in the presence of 1.0 mM NADPH and additional cofactors. At 0, 10, 20, and 40 minutes, 100 μL aliquots were removed and added to 300 μL of acetonitrile. Standard curves were prepared in a similar manner with each compound. Samples were analyzed for parent concentration by LC-MS/MS. The in vitro metabolic half-life was determined from the concentration-time plots using WinNonlin. These in vitro data represent the rate of oxidative, hydrolytic, and conjugative metabolism.

VEGFR-2 = target: T2, VEGFR-2 (Homo sapiens, UniProt P35968); assay: Kinase inhibition assay (DELFIA), VEGF-2; format: biochemical; conditions: 40 μM ATP, kinase domain 20 nM
T2 construct: The kinase domains from FGFR-1, VEGFR-2, Lck, and PDGF were purified from baculoviral vectors expression systems; made in house
T2 sequence (P35968 834-1162 limits assumed, species assumed): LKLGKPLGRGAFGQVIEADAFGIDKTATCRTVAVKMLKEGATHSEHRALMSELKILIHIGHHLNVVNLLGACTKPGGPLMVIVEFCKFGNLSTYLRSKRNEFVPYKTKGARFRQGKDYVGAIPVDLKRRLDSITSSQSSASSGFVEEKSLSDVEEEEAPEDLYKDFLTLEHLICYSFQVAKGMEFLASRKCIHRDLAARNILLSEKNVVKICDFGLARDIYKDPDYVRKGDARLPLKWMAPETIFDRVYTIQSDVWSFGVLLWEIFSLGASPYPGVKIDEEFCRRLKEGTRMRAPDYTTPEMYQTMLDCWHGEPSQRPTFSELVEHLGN
Protocol: as §2, with “DELFIA” for “The inhibition activity of the compounds in Examples 8, 9, 10, 11, and 12 and Reference Compounds A and B were evaluated using the Dissociated Enhanced Lanthanide Fluoroimmuno Assay (DELFIA) (Frank Loganzo and Carolyn Hardy. A sensitive, time-resolved fluorometric assay for the detection of inhibitors of phosphotyrosine kinases. American Biotechnology Laboratory, December 1998). DELFIA”, “One hundred microliter DELFIA enhancement solution (EG&G Wallac) was added and time-resolved fluorescence of the reactions determined using a VICTOR2 1420 multilable counter (EG&G Wallac).” left out

FGFR-1 = target: T3, FGFR-1 (Homo sapiens, UniProt P11362); assay: Kinase inhibition assay (DELFIA), FGFr; format: biochemical; conditions: 40 μM ATP, kinase domain 20 nM
T3 construct: The kinase domains from FGFR-1, VEGFR-2, Lck, and PDGF were purified from baculoviral vectors expression systems; made in house
T3 sequence (P11362 478-767 limits assumed, species assumed): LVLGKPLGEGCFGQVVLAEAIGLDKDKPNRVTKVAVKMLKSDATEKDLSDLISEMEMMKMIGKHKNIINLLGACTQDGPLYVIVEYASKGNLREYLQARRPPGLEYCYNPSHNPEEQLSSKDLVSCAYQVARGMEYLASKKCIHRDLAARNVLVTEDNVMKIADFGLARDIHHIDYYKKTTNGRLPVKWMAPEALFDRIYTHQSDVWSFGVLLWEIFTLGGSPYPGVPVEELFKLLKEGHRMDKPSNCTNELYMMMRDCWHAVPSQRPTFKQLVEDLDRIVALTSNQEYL
Protocol: as §2

c-Src = target: T4, c-Src (Homo sapiens, UniProt P12931); assay: Kinase inhibition assay (DELFIA), c-Src; format: biochemical; conditions: 40 μM ATP, c-Src 3 units per reaction
T4 construct: purchased Upstate Biotechnology, Lake Placid, N.Y
T4 sequence (P12931 whole entry): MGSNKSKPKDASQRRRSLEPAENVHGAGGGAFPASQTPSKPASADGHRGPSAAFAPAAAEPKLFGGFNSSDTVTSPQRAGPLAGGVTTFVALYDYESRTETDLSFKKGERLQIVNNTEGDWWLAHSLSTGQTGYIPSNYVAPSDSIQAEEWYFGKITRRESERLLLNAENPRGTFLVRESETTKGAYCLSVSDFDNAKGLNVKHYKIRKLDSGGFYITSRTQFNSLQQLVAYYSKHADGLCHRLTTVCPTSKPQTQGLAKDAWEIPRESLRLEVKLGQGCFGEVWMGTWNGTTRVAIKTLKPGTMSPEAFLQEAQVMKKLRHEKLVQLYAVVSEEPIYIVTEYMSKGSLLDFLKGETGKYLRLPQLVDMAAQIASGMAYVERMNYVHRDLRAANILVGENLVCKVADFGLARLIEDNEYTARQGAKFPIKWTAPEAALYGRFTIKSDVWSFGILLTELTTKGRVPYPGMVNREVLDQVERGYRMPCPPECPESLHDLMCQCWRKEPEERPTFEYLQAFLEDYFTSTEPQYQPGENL
Protocol: as §2

[4] = Metabolic stability, human liver S9 fraction; format: in vitro ADME; conditions: liver S9 fraction; human liver S9, 5 μM, 37° C., 1.0 mM NADPH; read-out: HS9 in vitro metabolic half-life
Protocol: as §3

in vitro = conditions: human, Caco-2
Protocol: as §4

A90 human ovarian cells = assay: A90 tumor cell proliferation (Sulphorhodamine B); format: cell-based; conditions: Homo sapiens, 96 h; 4 days with compound
Protocol: as §1

C6 rat glioma cells = assay: C6 tumor cell proliferation (Sulphorhodamine B); format: cell-based; conditions: Rattus norvegicus, Glioma cell, 96 h; 4 days with compound
Protocol: as §1

Compound	selectivity for serum-stimulated endothelial cell proliferation [1]	melting point	Ki (Lck)	IC50 (VEGFR-2)	IC50 (FGFR-1)	IC50 (c-Src)	further results
CCn1c(=O)c(-c2cc(OC)cc(OC)c2)cc2cnc(Nc3ccnc(C)c3)nc21 [Example 9, 6-(3,5-Dimethoxy-phenyl)-8-ethyl-2-(2-methyl-pyridin-4-ylamino)-8H-pyrido[2,3-d]pyrimidin-7-one]	selective inhibitors	> 300 °C	–	–	–	–	–
COCCc1ccc(OCC(O)CNC(C)C)cc1 (stereo not drawn) [metoprolol]	–	–	–	–	–	–	Papp A→B [2]: ~30 ×10⁻⁶ cm/s
CCN(CC)CCOc1ccc(Nc2ncc3cc(-c4cc(OC)cc(OC)c4)c(=O)n(C)c3n2)cc1 [Reference B, reference compound]	–	–	0.06 µM	0.004 µM	0.002 µM	1.34 µM	half-life at 5 μM [3]: 10 min; Papp A→B [2]: 20.1 ×10⁻⁶ cm/s; half-life at 5 μM [4]: 22 min
CCN(CC)CCOc1ccc(Nc2ncc3cc(-c4c(Cl)cccc4Cl)c(=O)n(C)c3n2)cc1 [Reference A]	–	–	–	–	–	–	half-life at 5 μM [3]: 14 min; Papp A→B (in vitro): 37.2 ×10⁻⁶ cm/s; half-life at 5 μM [4]: 46 min
COc1cc(OC)cc(-c2cc3cnc(Nc4ccncc4)nc3n(C3CCCC3)c2=O)c1 [Example 16, 6-(3,5-Dimethoxy-phenyl)-2-(pyridin-4-ylamino)-8-cyclopentyl-8H-pyrido[2,3-d]pyrimidin-7-one]	–	283 to 285 °C	–	–	–	–	–
COc1cc(OC)cc(-c2cc3cnc(Nc4ccncc4)nc3n(C)c2=O)c1 [Example 17, 6-(3,5-Dimethoxy-phenyl)-2-(pyridin-4-ylamino)-8-methyl-8H-pyrido[2,3-d]pyrimidin-7-one]	–	245 to 247 °C	–	–	–	–	–
CCn1c(=O)c(-c2cc(OC)cc(OC)c2)cc2cnc(Nc3cc(OC)nc(OC)c3)nc21 [Example 12, 6-(3,5-Dimethoxy-phenyl)-2-(2,6-dimethoxy-pyridin-4-ylamino)-8-ethyl-8H-pyrido[2,3-d]pyrimidin-7-one]	selective inhibitors	–	–	–	–	–	–
CCn1c(=O)c(-c2c(Cl)c(OC)cc(OC)c2Cl)cc2cnc(Nc3ccncc3)nc21 [Example 15, 6-(2,6-Dichloro-3,5-dimethoxy-phenyl)-2-(pyridin-4-ylamino)-8-ethyl-8H-pyrido[2,3-d]pyrimidin-7-one]	–	295.5 to 297 °C	–	–	–	–	–
CCn1c(=O)c(-c2cc(OC)cc(OC)c2)cc2cnc(Nc3ccnc(Cl)c3)nc21 [Example 11, 6-(3,5-Dimethoxy-phenyl)-2-(2-chloro-pyridin-4-ylamino)-8-ethyl-8H-pyrido[2,3-d]pyrimidin-7-one]	selective inhibitors	–	2.77 µM	0.003 µM	0.0002 µM	> 4 µM	IC50 ([1]; Homo sapiens, HUVEC, 96 h, 2% serum growth medium, 4 days with compound): 0.013 µM; IC50 (A90 human ovarian cells): 25 µM; IC50 (C6 rat glioma cells): 9.68 µM
CCn1c(=O)c(-c2cc(OC)cc(OC)c2)cc2cnc(Nc3cc(C)nc(C)c3)nc21 [Example 10, 6-(3,5-Dimethoxy-phenyl)-2-(2,6-dimethyl-pyridin-4-ylamino)-8-ethyl-8H-pyrido[2,3-d]pyrimidin-7-one]	selective inhibitors	–	0.74 µM	0.001 µM	0.0008 µM	> 4 µM	–
